One compound from patent US20220213060A1, “Crystal Form of Quinazolinone Compound and Preparation Method Therefor” (Luoxin Healthcare Science and Technology Development …, priority 2019, published 2022) can be followed below.

The structures appear in SMILES notation.

In assay [1] the target is T1, PI3Kβ (Homo sapiens, UniProt P42338).
T1 construct: purchased Promega V1751
Nature of the assay: In vitro enzymatic activity test (ADP-Glo lipid kinase), PI3Kβ. Type of assay: biochemical. The settings on record: inhibitory activity against PI3Kα relative to PI3Kβ. As to the method: The lipid kinase reaction was carried out in a suitable substrate and under ATP conditions, then the activity of the kinase was detected by ADP-Glo™ kit in two steps. Step 1: the kinase reaction was terminated, in which the residual ATP was completely removed and only ADP was retained; step 2: kinase detection reagent was added to convert ADP to ATP, accompanied by fluorescein/luciferase reaction. Finally, the fluorescence value output was converted into kinase activity.
Experimental Materials and Equipment:
2) Kit: ADP-Glo™ lipid kinase and PIP2:3PS kit (Promega #V1792)
The reagent kit contains: 1 mM PIP2:3PS, 10× lipid dilution buffer, 1 M magnesium chloride, 10 mM ATP, 10 mM ADP, ADP-Glo reagent, detection buffer and detection substrate.
3) Reaction plate: OptiPlate-384, white and transparent (PerkinElmer #6007299)
1) 10× reaction buffer: 500 mM HEPES, pH 7.5, 500 mM NaCl, […]; BSA: 10% stock solution, self-made
2) Final test system conditions: 1× reaction system: 50 mM of HEPES, 50 mM of NaCl, 3 mM of MgCl2, 0.01% BSA (freshly prepared on the day of experiment), 1% DMSO (v/v)+/−compound
3) Reaction system: 3 μL of mixture of enzyme and substrate (1:1)+2 μL of ATP/MgCl2 mixture+5 μL of ADP-Glo reagent+10 μL of detection reagent.
The specific experimental operations were as follows: […]
(16) Fluorescence values were measured on the Envision instrument.
For orientation: ADP-Glo first removes unused ATP, then detects ADP through luciferase.

The subject of assay [2] is RAW264.7. Briefly: Akt phosphorylation inhibition in RAW264.7 cells (high expression of PI3Kγ). Type of assay: cell-based. The settings on record: RAW264.7 cell line with high expression of PI3Kγ.
Assay [3] concerns human ovarian cancer SKOV-3 (PIK3CA H1047R mutation). Briefly: In vivo pharmacodynamic study, SKOV-3 nude mouse subcutaneous xenograft tumor model. Also noted: species or system BALB/c nude mice. The settings on record: for T/C % / TGI %: oral once a day for 28 days. Here is the method:
Human SKOV-3 ovarian cancer cells with PIK3CA H1047R mutation. This experiment evaluated the efficacy of the crystal form A of the represented by formula (I) in a human ovarian cancer xenograft tumor model.
Cell culture: Human ovarian cancer SKOV-3 cells were cultured in vitro in a single layer, the culture condition was RPMI-1640 medium with 10% fetal bovine serum, and the cells were incubated in 5% CO2 at 37° C. Digestion and passage treatment with trypsin-EDTA was carried out twice a week. When the cell saturation was 80%-90% and the number reached the requirement, the cells were collected, counted and inoculated.
Animals: BALB/c nude mice, female, 6-8 weeks old, weighing 18-20 g. A total of 67 animals were required, and provided by Beijing Vital River Biotechnology Co., Ltd.
Tumor inoculation: 0.2 mL (10×10^6 cells) of SKOV-3 cells (with matrigel in a volume ratio of 1:1) were subcutaneously inoculated on the right back of each mouse, group administration was started when the average tumor volume reached 150 mm^3-200 mm^3.
Tumor-bearing mice in each administration group had good tolerance to the tested compounds.

For assay [4], the system named is Jeko-1. Nature of the assay: Akt phosphorylation inhibition in Jeko-1 cells (high expression of PI3Kδ). Type of assay: cell-based. The settings on record: Jeko-1 cell line with high expression of PI3Kδ.
Setting [5] is: 10 mg/kg, listed as crystal form A of the compound represented by formula (I).
[6] abbreviates: 20 mg/kg, listed as crystal form A of the compound represented by formula (I).
[7] abbreviates: 40 mg/kg, listed as crystal form A of the compound represented by formula (I).

T1 sequence (P42338 whole entry): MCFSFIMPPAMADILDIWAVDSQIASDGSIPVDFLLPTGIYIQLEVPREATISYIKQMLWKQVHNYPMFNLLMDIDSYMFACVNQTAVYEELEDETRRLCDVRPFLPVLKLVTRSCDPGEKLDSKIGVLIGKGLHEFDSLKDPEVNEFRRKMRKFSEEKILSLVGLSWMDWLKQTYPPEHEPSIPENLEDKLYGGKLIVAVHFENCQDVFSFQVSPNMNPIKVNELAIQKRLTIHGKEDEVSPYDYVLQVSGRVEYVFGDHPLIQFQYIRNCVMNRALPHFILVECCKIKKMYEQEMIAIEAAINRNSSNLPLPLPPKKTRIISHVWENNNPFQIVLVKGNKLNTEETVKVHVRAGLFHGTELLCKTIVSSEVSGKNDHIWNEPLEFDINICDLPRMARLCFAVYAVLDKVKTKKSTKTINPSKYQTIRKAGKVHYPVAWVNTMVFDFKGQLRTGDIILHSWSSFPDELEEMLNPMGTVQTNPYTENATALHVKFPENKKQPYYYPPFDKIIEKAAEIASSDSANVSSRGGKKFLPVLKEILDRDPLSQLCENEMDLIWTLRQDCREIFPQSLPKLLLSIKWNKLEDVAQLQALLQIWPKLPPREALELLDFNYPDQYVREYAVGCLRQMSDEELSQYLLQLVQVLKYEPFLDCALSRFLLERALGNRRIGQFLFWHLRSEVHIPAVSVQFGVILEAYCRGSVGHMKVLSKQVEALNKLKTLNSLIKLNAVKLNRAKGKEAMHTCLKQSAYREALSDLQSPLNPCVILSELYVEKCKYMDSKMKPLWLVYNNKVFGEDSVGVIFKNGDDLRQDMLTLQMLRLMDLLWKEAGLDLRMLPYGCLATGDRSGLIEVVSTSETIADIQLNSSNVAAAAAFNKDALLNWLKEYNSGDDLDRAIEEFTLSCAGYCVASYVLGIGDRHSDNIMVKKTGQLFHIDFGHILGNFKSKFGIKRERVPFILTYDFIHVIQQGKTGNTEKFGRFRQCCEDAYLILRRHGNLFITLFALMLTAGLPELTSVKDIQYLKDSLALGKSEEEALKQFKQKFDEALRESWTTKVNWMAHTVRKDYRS
T1 sequence (P27986 whole entry partner): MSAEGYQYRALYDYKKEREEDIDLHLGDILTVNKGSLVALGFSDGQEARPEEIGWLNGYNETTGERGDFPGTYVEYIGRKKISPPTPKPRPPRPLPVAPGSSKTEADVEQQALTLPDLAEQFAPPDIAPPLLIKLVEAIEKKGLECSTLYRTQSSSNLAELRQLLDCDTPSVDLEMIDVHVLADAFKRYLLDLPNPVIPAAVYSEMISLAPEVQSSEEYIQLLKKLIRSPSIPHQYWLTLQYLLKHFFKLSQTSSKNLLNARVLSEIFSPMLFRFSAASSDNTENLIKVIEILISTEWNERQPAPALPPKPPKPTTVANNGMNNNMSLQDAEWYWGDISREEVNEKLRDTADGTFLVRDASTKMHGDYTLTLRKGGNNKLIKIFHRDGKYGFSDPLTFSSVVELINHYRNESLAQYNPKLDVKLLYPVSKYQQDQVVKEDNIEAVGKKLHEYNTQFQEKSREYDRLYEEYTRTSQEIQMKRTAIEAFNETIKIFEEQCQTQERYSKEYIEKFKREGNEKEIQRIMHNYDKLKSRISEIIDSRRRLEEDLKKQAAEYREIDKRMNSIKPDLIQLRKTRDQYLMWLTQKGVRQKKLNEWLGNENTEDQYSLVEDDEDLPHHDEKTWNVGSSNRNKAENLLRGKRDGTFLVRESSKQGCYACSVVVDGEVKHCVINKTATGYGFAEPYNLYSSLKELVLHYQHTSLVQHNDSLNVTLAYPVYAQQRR

As for `CNC(=O)[C@H](C)Cn1cnc2ccc(-c3cnc(OC)c(NS(=O)(=O)c4ccc(F)cc4F)c3)cc2c1=O`, the “Selectivity PI3Kα/β (kinase)” value in assay [1] is reported as 149 times. Further, the “Selectivity PI3Kα over PI3Kγ, Akt phosphorylation inhibitory activity in cells” value in assay [2] was above 694 times. In addition, the “Anti-tumor effect (in words)” value in assay [3] (10 mg/kg) is “a certain anti-tumor effect”; in assay [3] (20 mg/kg), “a certain anti-tumor effect”; in assay [3] (40 mg/kg group), “significant anti-tumor effects”. The T/C % stood at 69.17% in assay [3] (10 mg/kg); 69.17% in assay [3] (setting [5]); 60.61% in assay [3] (20 mg/kg); 60.61% in assay [3] (setting [6]); 37.79% in assay [3] (40 mg/kg); 37.79% in assay [3] (setting [7]). The TGI % in assay [3] (10 mg/kg) came to 30.45%; in assay [3] (setting [5]) it was 30.45%; in assay [3] (20 mg/kg) it was 41.42%; in assay [3] (setting [6]), 41.42%; in assay [3] (40 mg/kg), 69.16%; in assay [3] (setting [7]), 69.16%. Besides, the “Selectivity PI3Kα over PI3Kδ, Akt phosphorylation inhibitory activity in cells” value in assay [4] is on record as 23.0 times.
